Measurements published in patent US7342012B2, “Inhibitors of αLβ2 mediated cell adhesion” (Mitsubishi Tanabe Pharma Corporation, priority 1999, dated 2008).

| Structure (SMILES) | melting point |
| --- | --- |
| CN(C)[C@@H]1CN2C(=O)N(c3cc(Cl)cc(Cl)c3)C(=O)[C@@]2(Cc2ccc(Br)cc2)C1 [Example 50, (5R,7S)-5-(4-Bromobenzyl)-3-(3,5-dichlorophenyl)-7-dimethylamino-1,3-diazabicyclo[3.3.0]octane-2,4-dione] | 54 °C |
| N#Cc1ccc(CC23CCCN2C(=O)N(c2cc(Cl)cc(-n4cccc4)c2)C3=O)cc1 (centres unmarked) [Example 51, 5-(4-Cyanobenzyl)-3-[3-chloro-5-(1-pyrrolyl)-phenyl]-1,3-diazabicyclo[3.3.0]octane-2,4-dione] | 266.5 °C |
| N#Cc1ccc(CC23CCCN2C(=O)N(c2cc(Cl)cc(-n4cccc4C=O)c2)C3=O)cc1 (centres unmarked) [Example 52, 5-(4-Cyanobenzyl)-3-[3-chloro-5-(2-formyl-1-pyrrolyl)-phenyl]-1,3-diazabicyclo[3.3.0]octane-2,4-dione] | 109.7 °C |
| O=C1N(c2cc(Cl)nc(Cl)c2)C(=O)C2(Cc3ccc(Br)cc3)CCCN12 (centres unmarked) [Example 55, 3-(2,6-dichloro-4-pyridyl)-5-(4-bromobenzyl)-1,3-diazabicyclo[3.3.0]octane-2,4-dione] | 76.3 °C |
| CC(C)(C)OC(=O)N1CCC2(Cc3ccc(C#N)cc3)C(=O)N(c3cc(Cl)nc(Cl)c3)C(=O)N12 (centres unmarked) [Example 56, 8-(t-Butoxycarbonyl)-5-(4-cyanobenzyl)-3-(2,6-dichloro-4-pyridyl)-1,3,8-triazabicyclo[3.3.0]octane-2,4-dione] | 179 °C |
| N#Cc1ccc(CC23CCNN2C(=O)N(c2cc(Cl)nc(Cl)c2)C3=O)cc1 (centres unmarked) [Example 57, 5-(4-Cyanobenzyl)-3-(2,6-dichloro-4-pyridyl)-1,3,8-triazabicyclo [3.3.0]octane-2,4-dione] | 187 °C |
| O=C1N(c2cc(Cl)nc(Cl)c2)C(=O)[C@@]2(Cc3ccc(OC(F)(F)F)cc3)C[C@@H](O)CN12 [Example 58, (5R,7R)-5-[4-(Trifluoromethoxy)benzyl]-3-(2,6-dichloro-4-pyridyl)-7-hydroxy-1,3-diazabicyclo[3.3.0]octane-2,4-dione] | 52.4 °C |
| O=C1N(c2cc(Cl)nc(Cl)c2)C(=O)[C@]2(Cc3ccc(OC(F)(F)F)cc3)C[C@@H](O)CN12 [Example 59, (5S,7R)-5-[4-(Trifluoromethoxy)benzyl]-3-(2,6-dichloro-4-pyridyl)-7-hydroxy-1,3-diazabicyclo[3.3.0]octane-2,4-dione] | 162.3 °C |
| N#Cc1ccc(C[C@]23C[C@@H](O)CN2C(=O)N(c2cc(Cl)nc(Cl)c2)C3=O)cc1 [Example 60, (5R,7R)-5-(4-Cyanobenzyl)-3-(2,6-dichloro-4-pyridyl)-7-hydroxy-1,3-diazabicyclo[3.3.0]octane-2,4-dione] | 97.6 °C |
| O=C1N(c2cc(Cl)cc(Cl)c2)C(=O)[C@@]2(Cc3ccc(Br)cc3)C[C@H](O)CN12 [Example 61, (5R,7S)-5-(4-Bromobenzyl)-3-(3,5-dichlorophenyl)-7-hydroxy-1,3-diazabicyclo[3.3.0]octane-2,4-dione] | 60.4 °C |
| [N-]=[N+]=N[C@@H]1CN2C(=O)N(c3cc(Cl)nc(Cl)c3)C(=O)[C@@]2(Cc2ccc(OC(F)(F)F)cc2)C1 [Example 62, (5R,7S)-5-[4-(Trifluoromethoxy)benzyl]-3-(2,6-dichloro-4-pyridyl)-7-azido-1,3-diazabicyclo[3.3.0]octane-2,4-dione] | 139.9 °C |
| N[C@@H]1CN2C(=O)N(c3cc(Cl)nc(Cl)c3)C(=O)[C@@]2(Cc2ccc(OC(F)(F)F)cc2)C1 [Example 63, (5R,7S)-5-[4-(Trifluoromethoxy)benzyl]-3-(2,6-dichloro-4-pyridyl)-7-amino-1,3-diazabicyclo[3.3.0]octane-2,4-dione] | 150.6 °C |
| CC(=O)N[C@@H]1CN2C(=O)N(c3cc(Cl)nc(Cl)c3)C(=O)[C@@]2(Cc2ccc(OC(F)(F)F)cc2)C1 [Example 64, (5R,7S)-5-[4-(Trifluoromethoxy)benzyl]-3-(2,6-dichloro-4-pyridyl)-7-acetamido-1,3-diazabicyclo[3.3.0]octane-2,4-dione] | 126.9 °C |
| O=C(O)CCC(=O)N[C@@H]1CN2C(=O)N(c3cc(Cl)nc(Cl)c3)C(=O)[C@@]2(Cc2ccc(OC(F)(F)F)cc2)C1 [Example 66, (5R,7S)-5-[4-(Trifluoromethoxy)benzyl]-3-(2,6-dichloro-4-pyridyl)-7-(3-carboxypropanoylamino)-1,3-diazabicyclo[3.3.0]octane-2,4-dione] | 101.9 °C |
| O=C(N[C@@H]1CN2C(=O)N(c3cc(Cl)nc(Cl)c3)C(=O)[C@@]2(Cc2ccc(OC(F)(F)F)cc2)C1)c1ccncc1 [Example 67, (5R,7S)-5-[4-(Trifluoromethoxy)benzyl]-3-(2,6-dichloro-4-pyridyl)-7-(isonicotinoylamino)-1,3-diazabicyclo[3.3.0]octane-2,4-dione] | 148 °C |
| CN1CCN(C(=O)CCC(=O)N[C@@H]2CN3C(=O)N(c4cc(Cl)nc(Cl)c4)C(=O)[C@@]3(Cc3ccc(OC(F)(F)F)cc3)C2)CC1 [Example 69, (5R,7S)-5-[4-(Trifluoromethoxy)benzyl]-3-(2,6-dichloro-4-pyridyl)-7-[3-(4-methyl-1-piperazinylcarbonyl)propanoylamino]-1,3-diazabicyclo[3.3.0]octane-2,4-dione] | 70 °C |
| O=C1CN2C(=O)N(c3cc(Cl)nc(Cl)c3)C(=O)[C@@]2(Cc2ccc(OC(F)(F)F)cc2)C1 [Example 70, (5R)-5-[4-(Trifluoromethoxy)benzyl]-3-(2,6-dichloro-4-pyridyl)-7-oxo-1,3-diazabicyclo[3.3.0]octane-2,4-dione] | 166 °C |
| CC(C)(C)OC(=O)c1ccc(C(=O)N[C@H]2CN3C(=O)N(c4cc(Cl)cc(Cl)c4)C(=O)[C@@]3(Cc3ccc(Br)cc3)C2)cc1 [Example 80, (5R, 7R)-5-(4-Bromobenzyl)-3-(3,5-dichlorophenyl)-7-(4-t-butoxycarbonylbenzoylamino)-1,3-diazabicyclo[3.3.0]octane-2,4-dione] | 112 °C |
| O=C1N(c2cc(Cl)cc(Cl)c2)C(=O)C2(Cc3ccc(Br)cc3)C[C@@H](c3ccccc3)CN12 (stereo partly drawn) [Example 83, (7S)-5-(4-Bromobenzyl)-3-(3,5-dichlorophenyl)-7-phenyl-1,3-diazabicyclo[3.3.0]octane-2,4-dione] | 123.5 °C |
| O=C1N(c2cc(Cl)nc(Cl)c2)C(=O)C2(Cc3ccc(Br)cc3)CCCNN12 (centres unmarked) [Example 100, 6-(4-Bromobenzyl)-8-(2,6-dichloro-4-pyridyl)-1,2,8-triazabicyclo[4.3.0] nonan-7,9-dione] | 190 °C (dec.) |
| CC(=O)N1CCCC2(Cc3ccc(Br)cc3)C(=O)N(c3cc(Cl)nc(Cl)c3)C(=O)N12 (centres unmarked) [Example 101, 6-(4-Bromobenzyl)-8-(2,6-dichloro-4-pyridyl)-2-acetyl-1,2,8-triazabicyclo[4.3.0]nonane-7,9-dione] | 91 °C |
| COC(=O)N1CCCC2(Cc3ccc(Br)cc3)C(=O)N(c3cc(Cl)nc(Cl)c3)C(=O)N12 (centres unmarked) [Example 102, 6-(4-Bromobenzyl)-8-(2,6-dichloro-4-pyridyl)-2-methoxycarbonyl-1,2,8-triazabicyclo[4.3.0]nonane-7,9-dione] | 81 °C |
| COC(=O)CCN1CCCC2(Cc3ccc(Br)cc3)C(=O)N(c3cc(Cl)nc(Cl)c3)C(=O)N12 (centres unmarked) [Example 103, 6-(4-Bromobenzyl)-8-(2,6-dichloro-4-pyridyl)-2-[2-(methoxycarbonyl)ethyl]-1,2,8-triazabicyclo[4.3.0]nonane-7,9-dione] | 157 °C |
